Results from patent US20060057669A1, “Inactive transcription factor tif-ia and uses thereof” (priority 2002, published 2006).

Legend:
[1] = test system: TIF-IA; assay: Two-dimensional tryptic phosphopeptide mapping of TIF-IA labeled in vivo in HEK293T cells; format: cell-based, human; conditions: serum-stimulated cells, 40 μM PD98059
Procedure: HEK293T cells were transfected with pcDNA3.1-FLAG-TIF-IA, starved for 12 hr and labeled for 4 hr with [^32P]orthophosphate. 30 min before harvesting, 10% dialyzed FCS was added and cells were incubated in the absence (left panel) or presence of 40 μM PD98059 (right panel). Immunopurified TIF-IA was subjected to two-dimensional phosphopeptide mapping.
(B) Tryptic peptide maps of TIF-IA phosphorylated in vivo. FLAG-tagged wild-type TIF-IA, TIF-IAS633A and TIF-IAS649A were expressed in HEK293T cells and labeled with [^32P]orthophosphate for 4 hr. TIF-IA was purified by immunoprecipitation and digested with trypsin. Phosphopeptides were separated on cellulose thin-layer plates and visualized by autoradiography. The sequence of the C-terminus of human TIF-IA (H.s.) and an alignment with the corresponding sequences from mouse (M.m.), Drosophila melanogaster (D.m.) and Saccharomyces pombe (S.p.) is shown above.
(A) Two-dimensional tryptic phosphopeptide maps of TIF-IA. HEK293T cells were transfected with FLAG-tagged TIF-IA and labeled for 2 hr with [^32P]orthophosphate in the absence (left) or presence (right) of 20 nM rapamycin. TIF-IA was immunopurified, digested with trypsin, separated on cellulose thin-layer plates and visualized by autoradiography.
(B) Tryptic phosphopeptide map of TIF-IAS44A phosphorylated in vivo. […]

[2] = test system: Pol I transcription; assay: Pol I reporter plasmid pMrl930-BH co-transfection in NIH3T3 cells, Northern blot; format: cell-based; conditions: 0.25, 0.5 or 1 μg expression vector
Procedure: (C) Phosphorylation by RSK is necessary and sufficient for enhancing TIF-IA activity in vivo. NIH3T3 cells were co-transfected with 3 μg pMrl930-BH and lor 2.5 μg of pMT2-HA-CA-RSK2 (lanes 2, 3). Transcripts from the reporter plasmid were monitored on Northern blots. An ethidium bromide stain of cellular 18S and 28S rRNA is shown below.
(C) Transcriptional activity of TIF-IAS44A in vivo. NIH3T3 cells were cotransfected with 2.5 μg Pol I reporter plasmid (pMrl930-BH) and 0.25, 0.5 or 1 μg of pcDNA3.1-TIF-IA (lanes 2-4), TIF-IAS44A (lanes 5-7). Transcripts from the reporter plasmid were monitored on Northern blots. The amount of cellular 18S and 28S rRNA is shown below.
NIH3T3, HEK293T and CLL39 cells were cultured in Dulbecco's modified Eagles medium (DMEM) supplemented with 10% fetal calf serum. Cells were transfected with 5 μg of DNA per 10^6 cells using the calcium phosphate DNA coprecipitation method. Total RNA was isolated after 48 h and analyzed on Northern blots as described (Voit et al., EMBO J. 18 (1999), 1891-1899). Cellular pre-rRNA levels were monitored by hybridization to antisense RNA complementary to the first 155 nucleotides of unprocessed 45S pre-RNA. Transcripts from the rDNA reporter plasmid were monitored by hybridization to a riboprobe that is complementary to pUC sequences inserted between the rDNA promoter and terminator sequences of pMrl930-BH. […]

Molecule	labeling of TIF-IA phosphopeptide spots d, f and g [1]	phosphorylation of TIF-IA phosphopeptide spots b and c [1]	transcription of the Pol I reporter [2]
COc1cccc(-c2cc(=O)c3ccccc3o2)c1N [PD98059]	impaired	reduced	–
TIF-IA: wild-type human transcription initiation factor TIF-IA, accession No. AJ272050	–	–	enhanced transcription of the reporter
